Laboratory results reported in publication PMC4635571 (Journal of immunology (Baltimore, Md. : 1950), 2015).

Legend:
[1] = system: naïve CD4+ T cells; format: cell-based, mouse
[2] = system: Human peripheral blood mononuclear cells (PBMC); experiment: Cytokine production by human PBMC; format: cell-based
[3] = system: CD-1 mice; experiment: Anti-CD3-induced cytokines in mouse plasma; format: in vivo; settings: 20 mg/kg i.p., anti-CD3 1hr or 6hr later, plasma 2hr post-anti-CD3
[4] = system: Rag2−/− hosts; experiment: CD4+ CD45RBhi T cell adoptive transfer model of colitis; format: in vivo
[5] = system: phosphorylated-PLCγ1; experiment: In vivo target engagement assay; parameters: species or system mouse; settings: 40 mg/kg oral, 2hr or 6hr post-treatment, ex vivo anti-CD3/CD28 stimulation
[6] = system: HCT116 colorectal carcinoma cell line; experiment: Inhibition of proliferation of HCT116 cells; format: cell-based; settings: read-out: IC50 of inhibition of proliferation; HCT116, general cytotoxicity
[7] = system: polarized CD4+ T cells; experiment: P-selectin; format: cell-based, mouse
[8] = system: polarized CD4+ T cells; experiment: Transwell cell migration assay; format: cell-based, mouse; settings: 3hr, cells cultured with 25 or 50nM PRN694
[9] = system: ITK; settings: versus e.g. BMS-509744 and BMS-488516; Fig. 1B

C=CC(=O)N1CCC[C@@H]1Cn1c(NC(=O)c2ccc(C(F)F)s2)nc2cc(CN[C@@H](C)C(C)(C)C)ccc21 [PRN694]
inhibition of IFN-γ production by TH1 cells ([1]; 25nM PRN694, TH1-polarizing conditions, 72hr, PMA/Ionomycin restimulation 5hr): > 50% | expression levels of transcription factors (T-bet, GATA-3, RORγt) ([1]; TH1, TH2, TH17 polarization with inhibitor): decreased | IL-2 production by in vitro polarized CD4+ T cells ([1]; all three lineages of T helper cells, 72hr): inhibited | inhibition of IL-4 production by TH2 cells ([1]; any of the doses tested, TH2-polarizing conditions, 72hr): < 50% | increase in IFN-γ, IL-6 and IL-2 induced by anti-CD3/CD28 ([2]; 20nM PRN694, 18hr): strongly inhibited | increase in IFN-γ, IL-6 and IL-2 induced by anti-CD3/CD28 ([2]; 5.0μM PRN694, 18hr): completely blocked | ability to inhibit IL-2 production on thapsigargin stimulation ([2]; PBMC stimulated with thapsigargin 10 μM, 18hr): strongly impaired | increase in plasma IFN-γ, IL-6 and IL-2 induced by anti-CD3 [3]: inhibited | toxicity during long-term in vivo administration ([4]; 7 week dosing time frame): no apparent toxicity | CD4+ T cell proportions in intestinal epithelium and LP versus vehicle ([4]; 7 weeks post-transfer): significantly less | expression of integrin α4β7 and CCR6 on intestinal epithelial CD4+ T cells ([4]; 7 weeks post-transfer): reduced | histological analysis of the colonic epithelium ([4]; 7 weeks post-transfer, H&E): reduced inflammation | proportions of cells capable of producing IL-2 ([4]; 7 weeks post-transfer, PMA/Ionomycin): reduced proportions | reduced colon length ([4]; 7 weeks post-transfer, oral dosing): prevented | proportions of CD4+ T cells expressing Foxp3 ([4]; all organs examined, 7 weeks post-transfer): significantly reduced | behavioral indications of toxicity ([4]; long-term in vivo administration): no behavioral indications of drug-mediated toxicity | proportions of CD4+ T cells producing IFN-γ ([4]; mesenteric LN, IEL and LP, 7 weeks post-transfer, PMA/Ionomycin): markedly reduced | weight change (disease progression) ([4]; oral 40 mg/kg once a day or 20 mg/kg twice a day, 7 weeks): no weight loss | phosphorylation of PLCγ1 [5]: completely blocked | IC50 [6]: 10 µM | P-selectin binding of TH1 and TH17 cells ([7]; differentiated 72hr with 25 or 50nM PRN694): reduced P-selectin binding | P-selectin binding of TH2 cells ([7]; only visible in the higher dose of inhibitor (50nM)): only a modest reduction | TH17 migration to CCL20 ([8]; CCL20 100 ng/mL): reduced approximately two-fold | TH1 migration to CXCL11 ([8]; CXCL11 100 ng/mL): inhibited | fold more potent in inhibiting ITK than previously-described ITK inhibitors [9]: 63- to 320 fold
